Measurements published in ChEMBL document CHEMBL1201862, “PubChem BioAssay data set” (2004).
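Briefly, cells in 96-well plates were exposed to five compound concentrations for 48 h, and endpoints were estimated by linear interpolation. GI50 marks 50% less growth.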 The source made the active and inactive calls. Cut-off read from the data, not from the text of the source: active = GI50 up to about 1.1 µM and inactive = higher.

Key:
Assay in all cases: NCI-60 cell line screen, 48 h
[1] = tested on: COLO 205
[2] = tested on: HCT-116
[3] = tested on: IGROV-1
[4] = tested on: K562
[5] = tested on: KM12
[6] = tested on: LOX IMVI
[7] = tested on: M14
[8] = tested on: MDA-MB-231
[9] = tested on: MDA-N
[10] = tested on: MOLT-4
[11] = tested on: NCI-H226
[12] = tested on: NCI-H23
[13] = tested on: OVCAR-5
[14] = tested on: SF-539
[15] = tested on: SK-MEL-2
[16] = tested on: SK-MEL-5
[17] = tested on: SNB-19
[18] = tested on: SNB-75
[19] = tested on: UACC-257
[20] = tested on: HOP-62

Measured: GI50

Cc1ccsc1C(=S)Nc1ccc(Cl)c(C(=O)OC(C(C)C)C(C)C)c1
inactive: [1] 12.9 µM | [2] 12.1 µM | [3] 32.3 µM | [4] 3.97 µM | [5] 20 µM | [6] 18 µM | [7] 17.9 µM | [8] 17.2 µM | [9] 23.6 µM | [10] 5.51 µM | [11] 29 µM | [12] 13.5 µM | [13] 57.9 µM | [14] 39.6 µM | [15] 11.7 µM | [16] 15.4 µM | [17] 25.5 µM | [18] 24 µM | [19] 28.4 µM

O=C1CC2SC(COCc3ccccc3)(CCN2Cc2ccccc2)C1 (configuration not stated)
inactive: [1] 39.1 µM | [2] 44.2 µM | [20] > 100 µM | [3] > 100 µM | [4] 38.1 µM | [5] 52.2 µM | [6] 31.8 µM | [7] 49.1 µM | [8] > 100 µM | [9] 71.4 µM | [10] 30.3 µM | [11] 87.3 µM | [12] 43.9 µM | [13] > 100 µM | [14] > 100 µM | [15] > 100 µM | [16] 19.5 µM | [17] > 100 µM | [18] > 100 µM | [19] 37.1 µM

Cc1ccc(S(=O)(=O)Nn2c(O)c(C#N)c(-c3ccc(N(C)C)cc3)c(C#N)c2=O)cc1
inactive: [1] > 50 µM | [2] > 50 µM | [20] > 50 µM | [3] > 50 µM | [4] > 50 µM | [5] > 50 µM | [6] > 50 µM | [8] > 50 µM | [9] > 50 µM | [10] > 50 µM | [11] > 50 µM | [13] 21.8 µM | [14] > 50 µM | [15] > 50 µM | [16] 26.2 µM | [17] > 50 µM | [18] > 50 µM | [19] > 50 µM

CCOC(=O)c1cc2c3c(c(C(C)=O)c(OC)c2[nH]1)N(C(=O)CC)CC3
inactive: [1] 18.2 µM | [2] 14.4 µM | [20] 25.1 µM | [3] 13.6 µM | [4] 14.1 µM | [5] 10.7 µM | [6] 14.6 µM | [7] 16.8 µM | [8] 4.25 µM | [9] 16.8 µM | [10] 4.05 µM | [11] 10.2 µM | [12] 11.9 µM | [13] 27.7 µM | [14] 19.8 µM | [15] 22.3 µM | [16] 10.9 µM | [17] 12.8 µM | [18] 20.7 µM | [19] 19.4 µM

CC1CC(C#N)=C2NCCCCN2C1=O (configuration not stated)
inactive: [1] > 100 µM | [20] > 100 µM | [3] > 100 µM | [4] > 100 µM | [5] > 100 µM | [6] > 100 µM | [7] > 100 µM | [8] > 100 µM | [9] > 100 µM | [10] > 100 µM | [11] > 100 µM | [12] > 100 µM | [14] > 100 µM | [15] > 100 µM | [16] > 100 µM | [17] > 100 µM | [18] > 100 µM | [19] > 100 µM

O=C(O)c1cccc(S(=O)(=O)NN2C(=O)CSC2c2ccccc2Cl)c1 (configuration not stated)
inactive: [1] > 100 µM | [2] > 100 µM | [20] > 100 µM | [3] > 100 µM | [4] > 100 µM | [5] > 100 µM | [6] > 100 µM | [7] > 100 µM | [8] > 100 µM | [9] > 100 µM | [10] > 100 µM | [11] 58.3 µM | [12] > 100 µM | [13] > 100 µM | [14] > 100 µM | [15] > 100 µM | [16] > 100 µM | [17] > 100 µM | [18] > 100 µM | [19] > 100 µM

COC12C=CC(CC1)C(C)(C)C2OS(C)(=O)=O (configuration not stated)
inactive: [1] > 100 µM | [2] > 100 µM | [20] > 100 µM | [3] > 100 µM | [4] > 100 µM | [5] > 100 µM | [7] > 100 µM | [8] > 100 µM | [9] > 100 µM | [10] > 100 µM | [11] > 100 µM | [12] > 100 µM | [13] > 100 µM | [14] > 100 µM | [15] > 100 µM | [16] > 100 µM | [17] > 100 µM | [18] 38.3 µM | [19] > 100 µM

Clc1cc2nc(C3CCCCO3)[nH]c2cc1Cl (configuration not stated)
inactive: [1] 26 µM | [2] 13.7 µM | [20] 64.7 µM | [3] 24 µM | [4] 6.47 µM | [5] 10.6 µM | [6] 20.3 µM | [7] 28.5 µM | [8] 34.3 µM | [9] 4.1 µM | [10] 33.3 µM | [11] 86.7 µM | [12] 18 µM | [13] > 63.1 µM | [14] 26.8 µM | [15] > 100 µM | [16] 6.03 µM | [17] 39.7 µM | [18] 15.2 µM | [19] 59.2 µM

O=C1Nc2cc([N+](=O)[O-])ccc2N/C1=C/C(=O)c1ccc(Cl)cc1
inactive: [1] 24.4 µM | [2] 3.24 µM | [3] 12.3 µM | [4] 3.64 µM | [5] 14.4 µM | [6] 11.3 µM | [7] 12.9 µM | [8] 5.83 µM | [9] 24.3 µM | [10] 17 µM | [11] 19.5 µM | [12] 14.2 µM | [13] 21.5 µM | [14] 10.7 µM | [15] 16.9 µM | [16] 15.9 µM | [17] 11.2 µM | [18] 20.1 µM | [19] 27.5 µM

COc1cc2oc(-c3ccc(O)cc3)cc(=O)c2c(OC)c1O
inactive: [1] > 100 µM | [2] 54 µM | [20] 29.2 µM | [3] 57.3 µM | [4] 60.5 µM | [6] 60.5 µM | [7] > 100 µM | [8] 46.9 µM | [9] > 100 µM | [10] > 100 µM | [11] > 100 µM | [12] > 100 µM | [13] > 100 µM | [14] > 100 µM | [15] > 100 µM | [16] 49.4 µM | [17] 45.4 µM | [18] 14.5 µM | [19] > 100 µM
